From ChEMBL document CHEMBL3608278 (J Med Chem, 2015)
Bridge positions count the residues as written; N and C are the ends. Peptide text beside a SMILES is read from it.

Tests used:
[1] = target: T1, Potassium voltage-gated channel subfamily A member 3 (Homo sapiens, UniProt P22001); experiment: cell-based; parameters: species or system Blood
[2] = target: T1, Potassium voltage-gated channel subfamily A member 3; type: cell-based, CHO-K1
[3] = target: T1, Potassium voltage-gated channel subfamily A member 3; parameters: species or system Blood

T1 sequence (P22001 whole entry): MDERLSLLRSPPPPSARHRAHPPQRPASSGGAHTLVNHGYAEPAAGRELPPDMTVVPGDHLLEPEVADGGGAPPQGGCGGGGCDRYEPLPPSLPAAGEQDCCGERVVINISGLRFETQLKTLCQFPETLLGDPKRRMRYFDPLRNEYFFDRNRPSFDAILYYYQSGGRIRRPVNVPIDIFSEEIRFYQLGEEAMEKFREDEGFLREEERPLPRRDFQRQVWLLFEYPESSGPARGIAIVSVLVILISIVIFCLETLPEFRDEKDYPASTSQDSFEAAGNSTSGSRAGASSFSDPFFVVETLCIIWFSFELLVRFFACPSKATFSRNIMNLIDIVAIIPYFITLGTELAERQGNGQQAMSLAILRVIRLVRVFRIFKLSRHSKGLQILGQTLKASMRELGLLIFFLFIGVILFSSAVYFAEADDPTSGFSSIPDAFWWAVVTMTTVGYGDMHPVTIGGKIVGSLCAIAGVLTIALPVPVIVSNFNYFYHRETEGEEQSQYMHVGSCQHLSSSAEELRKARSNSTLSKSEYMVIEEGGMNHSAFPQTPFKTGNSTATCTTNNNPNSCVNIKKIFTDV

Compound: CC[C@H](C)[C@@H]1NC(=O)[C@@H](NC(=O)[C@H](CO)NC(=O)[C@@H](N)CCCNC(=N)N)CSSC[C@@H](C(=O)O)NC(=O)[C@H]([C@@H](C)O)NC(=O)CNC(=O)[C@@H]2CSSC[C@@H]3NC(=O)[C@H](CCC(N)=O)NC(=O)[C@H](Cc4ccccc4)NC(=O)[C@H](C)NC(=O)[C@H]([C@@H](C)O)NC(=O)[C@H](CSSC[C@H](NC(=O)[C@H](Cc4ccccc4)NC(=O)[C@H](CO)NC(=O)[C@H](CC(C)C)NC(=O)[C@H](CCCNC(=N)N)NC(=O)[C@H](Cc4ccc(O)cc4)NC(=O)[C@H](CCCCN)NC(=O)[C@H](CCSC)NC(=O)[C@H](CO)NC(=O)[C@H](C)NC(=O)[C@H](CCCCN)NC3=O)C(=O)N[C@@H](CCCNC(=N)N)C(=O)N[C@@H](CCCCN)C(=O)N[C@@H]([C@@H](C)O)C(=O)N2)NC(=O)[C@H](CCCNC(=N)N)NC(=O)[C@H](CO)NC(=O)[C@H](CCCCN)NC(=O)[C@@H]2CCCN2C(=O)[C@H]([C@@H](C)CC)NC(=O)[C@H]([C@@H](C)O)NC(=O)[C@H](CC(=O)O)NC1=O
- IC50 [1]: 0.301 nM
- IC50 [2]: 0.24 nM
- IC50 [3]: 0.556 nM

Compound: CC[C@H](C)[C@@H]1NC(=O)[C@@H](NC(=O)[C@H](CCCCN)NC(=O)[C@@H](N)CCCNC(=N)N)CSSC[C@@H](C(=O)O)NC(=O)[C@H]([C@@H](C)O)NC(=O)CNC(=O)[C@@H]2CSSC[C@@H]3NC(=O)[C@H](CCC(N)=O)NC(=O)[C@H](Cc4ccccc4)NC(=O)[C@H](C)NC(=O)[C@H]([C@@H](C)O)NC(=O)[C@H](CSSC[C@H](NC(=O)[C@H](Cc4ccccc4)NC(=O)[C@H](CO)NC(=O)[C@H](CC(C)C)NC(=O)[C@H](CCCNC(=N)N)NC(=O)[C@H](Cc4ccc(O)cc4)NC(=O)[C@H](CCCCN)NC(=O)[C@H](CCSC)NC(=O)[C@H](CO)NC(=O)[C@H](Cc4cnc[nH]4)NC(=O)[C@H](CCCCN)NC3=O)C(=O)N[C@@H](CCCNC(=N)N)C(=O)N[C@@H](CCCCN)C(=O)N[C@@H]([C@@H](C)O)C(=O)N2)NC(=O)[C@H](CCCNC(=N)N)NC(=O)[C@H](CO)NC(=O)[C@H](CCCCN)NC(=O)[C@@H]2CCCN2C(=O)[C@H]([C@@H](C)CC)NC(=O)[C@H]([C@@H](C)O)NC(=O)[C@H](CC(=O)O)NC1=O
- IC50 [1]: 0.099 nM
- IC50 [2]: 0.146 nM
- IC50 [3]: 0.094 nM

Compound: CC[C@H](C)[C@@H]1NC(=O)[C@@H](NC(=O)[C@H](CO)NC(=O)[C@@H](N)CCCNC(=N)N)CSSC[C@@H](C(=O)O)NC(=O)[C@H]([C@@H](C)O)NC(=O)CNC(=O)[C@@H]2CSSC[C@@H]3NC(=O)[C@H](CCC(N)=O)NC(=O)[C@H](Cc4ccccc4)NC(=O)[C@H](C)NC(=O)[C@H]([C@@H](C)O)NC(=O)[C@H](CSSC[C@H](NC(=O)[C@H](CCCNC(=N)N)NC(=O)[C@H](CO)NC(=O)[C@H](CC(C)C)NC(=O)[C@H](CCCNC(=N)N)NC(=O)[C@H](Cc4ccc(O)cc4)NC(=O)[C@H](CCCCN)NC(=O)[C@H](CCSC)NC(=O)[C@H](CO)NC(=O)[C@H](Cc4cnc[nH]4)NC(=O)[C@H](CCCCN)NC3=O)C(=O)N[C@@H](CCCNC(=N)N)C(=O)N[C@@H](CCCCN)C(=O)N[C@@H]([C@@H](C)O)C(=O)N2)NC(=O)[C@H](CCCNC(=N)N)NC(=O)[C@H](CO)NC(=O)[C@H](CCCCN)NC(=O)[C@@H]2CCCN2C(=O)[C@H]([C@@H](C)CC)NC(=O)[C@H]([C@@H](C)O)NC(=O)[C@H](CC(=O)O)NC1=O
- IC50 [1]: 13 nM
- IC50 [2]: > 3.33 nM
- IC50 [3]: 59.7 nM

Compound: CC[C@H](C)[C@@H]1NC(=O)[C@@H](NC(=O)[C@H](CO)NC(=O)[C@@H](N)CCCNC(=N)N)CSSC[C@@H](C(=O)O)NC(=O)[C@H]([C@@H](C)O)NC(=O)CNC(=O)[C@@H]2CSSC[C@@H]3NC(=O)[C@H](CCC(N)=O)NC(=O)[C@H](Cc4ccccc4)NC(=O)[C@H](C)NC(=O)[C@H]([C@@H](C)O)NC(=O)[C@H](CSSC[C@H](NC(=O)[C@H](Cc4ccccc4)NC(=O)[C@H](CO)NC(=O)[C@H](CC(C)C)NC(=O)[C@H](CCCNC(=N)N)NC(=O)[C@H](Cc4ccc(O)cc4)NC(=O)[C@H](CCC(=O)O)NC(=O)[C@H](CCSC)NC(=O)[C@H](CO)NC(=O)[C@H](Cc4cnc[nH]4)NC(=O)[C@H](CCCCN)NC3=O)C(=O)N[C@@H](CCCNC(=N)N)C(=O)N[C@@H](CCCCN)C(=O)N[C@@H]([C@@H](C)O)C(=O)N2)NC(=O)[C@H](CCCNC(=N)N)NC(=O)[C@H](CO)NC(=O)[C@H](CCCCN)NC(=O)[C@@H]2CCCN2C(=O)[C@H]([C@@H](C)CC)NC(=O)[C@H]([C@@H](C)O)NC(=O)[C@H](CC(=O)O)NC1=O
- IC50 [1]: > 100 nM
- IC50 [2]: > 3.33 nM
- IC50 [3]: > 100 nM

Compound: CCCC[C@@H]1NC(=O)[C@H](CO)NC(=O)[C@H](Cc2c[nH]cn2)NC(=O)[C@H](CCCCN)NC(=O)[C@@H]2CSSC[C@@H]3NC(=O)[C@H]([C@@H](C)O)NC(=O)[C@H](CCCCN)NC(=O)[C@H](CCCNC(=N)N)NC(=O)[C@H](CSSC[C@H](NC(=O)[C@H](CCCNC(=N)N)NC(=O)[C@H](CO)NC(=O)[C@H](CCCCN)NC(=O)[C@@H]4CCCN4C(=O)[C@H]([C@@H](C)CC)NC(=O)[C@H]([C@@H](C)O)NC(=O)[C@H](CC(=O)O)NC(=O)[C@H]([C@@H](C)CC)NC(=O)[C@@H](NC(=O)[C@H](CO)NC(=O)[C@@H](N)CCCNC(=N)N)CSSC[C@@H](C(=O)N[C@@H](C)C(=O)O)NC(=O)[C@H]([C@@H](C)O)NC(=O)CNC3=O)C(=O)N[C@@H]([C@@H](C)O)C(=O)N[C@@H](C)C(=O)N[C@@H](Cc3ccccc3)C(=O)N[C@@H](CCCCN)C(=O)N2)NC(=O)[C@H](Cc2ccccc2)NC(=O)[C@H](CO)NC(=O)[C@H](CC(C)C)NC(=O)[C@H](CCCNC(=N)N)NC(=O)[C@H](Cc2ccc(O)cc2)NC(=O)[C@H](CCCCN)NC1=O
- IC50 [1]: 0.305 nM
- IC50 [2]: 0.071 nM
- IC50 [3]: 0.515 nM

Compound: CC[C@H](C)[C@@H]1NC(=O)[C@@H](NC(=O)[C@H](CO)NC(=O)[C@@H](N)CCCNC(=N)N)CSSC[C@@H](C(=O)O)NC(=O)[C@H]([C@@H](C)O)NC(=O)CNC(=O)[C@@H]2CSSC[C@@H]3NC(=O)[C@H](CCC(N)=O)NC(=O)[C@H](CCCCN)NC(=O)[C@H](C)NC(=O)[C@H]([C@@H](C)O)NC(=O)[C@H](CSSC[C@H](NC(=O)[C@H](Cc4ccccc4)NC(=O)[C@H](CO)NC(=O)[C@H](CC(C)C)NC(=O)[C@H](CCCNC(=N)N)NC(=O)[C@H](Cc4ccc(O)cc4)NC(=O)[C@H](CCCCN)NC(=O)[C@H](CCSC)NC(=O)[C@H](CO)NC(=O)[C@H](C)NC(=O)[C@H](CCCCN)NC3=O)C(=O)N[C@@H](CCCNC(=N)N)C(=O)N[C@@H](CCCCN)C(=O)N[C@@H]([C@@H](C)O)C(=O)N2)NC(=O)[C@H](CCCNC(=N)N)NC(=O)[C@H](CO)NC(=O)[C@H](CCCCN)NC(=O)[C@@H]2CCCN2C(=O)[C@H]([C@@H](C)CC)NC(=O)[C@H]([C@@H](C)O)NC(=O)[C@H](CC(=O)O)NC1=O (H-RSCIDTIPKSRCTAKQCKASMKYRLSFCRKTCGTC-OH; disulfide 3-35, 12-28, 17-32)
- IC50 [1]: 0.465 nM
- IC50 [2]: 0.294 nM
- IC50 [3]: 0.991 nM

Compound: CC[C@H](C)[C@@H]1NC(=O)[C@@H](NC(=O)[C@H](CO)NC(=O)[C@@H](N)CCCNC(=N)N)CSSC[C@@H](C(=O)O)NC(=O)[C@H]([C@@H](C)O)NC(=O)CNC(=O)[C@@H]2CSSC[C@@H]3NC(=O)[C@H](Cc4cccc5ccccc45)NC(=O)[C@H](Cc4ccccc4)NC(=O)[C@H](C)NC(=O)[C@H]([C@@H](C)O)NC(=O)[C@H](CSSC[C@H](NC(=O)[C@H](Cc4ccccc4)NC(=O)[C@H](CO)NC(=O)[C@H](CC(C)C)NC(=O)[C@H](CCCNC(=N)N)NC(=O)[C@H](Cc4ccc(O)cc4)NC(=O)[C@H](CCCCN)NC(=O)[C@H](CCSC)NC(=O)[C@H](CO)NC(=O)[C@H](Cc4cnc[nH]4)NC(=O)[C@H](CCCCN)NC3=O)C(=O)N[C@@H](CCCNC(=N)N)C(=O)N[C@@H](CCCCN)C(=O)N[C@@H]([C@@H](C)O)C(=O)N2)NC(=O)[C@H](CCCNC(=N)N)NC(=O)[C@H](CO)NC(=O)[C@H](CCCCN)NC(=O)[C@@H]2CCCN2C(=O)[C@H]([C@@H](C)CC)NC(=O)[C@H]([C@@H](C)O)NC(=O)[C@H](CC(=O)O)NC1=O
- IC50 [1]: 28.9 nM
- IC50 [2]: 1.44 nM
- IC50 [3]: 9.55 nM

Compound: CC[C@H](C)[C@@H]1NC(=O)[C@@H](NC(=O)[C@H](CO)NC(=O)[C@@H](N)CCCNC(=N)N)CSSC[C@@H](C(=O)O)NC(=O)[C@H]([C@@H](C)O)NC(=O)CNC(=O)[C@@H]2CSSC[C@@H]3NC(=O)[C@H](CCC(N)=O)NC(=O)[C@H](Cc4ccccc4)NC(=O)[C@H](C)NC(=O)[C@H]([C@@H](C)O)NC(=O)[C@H](CSSC[C@H](NC(=O)[C@H](Cc4ccccc4)NC(=O)[C@H](CO)NC(=O)[C@H](CC(C)C)NC(=O)[C@H](CCCNC(=N)N)NC(=O)[C@H](Cc4ccc(O)cc4)NC(=O)[C@H](CCCCN)NC(=O)[C@H](CCSC)NC(=O)[C@H](CO)NC(=O)[C@H](CCCNC(=N)N)NC(=O)[C@H](CCCCN)NC3=O)C(=O)N[C@@H](CCCNC(=N)N)C(=O)N[C@@H](CCCCN)C(=O)N[C@@H]([C@@H](C)O)C(=O)N2)NC(=O)[C@H](CCCNC(=N)N)NC(=O)[C@H](CO)NC(=O)[C@H](CCCCN)NC(=O)[C@@H]2CCCN2C(=O)[C@H]([C@@H](C)CC)NC(=O)[C@H]([C@@H](C)O)NC(=O)[C@H](CC(=O)O)NC1=O
- IC50 [1]: 0.114 nM
- IC50 [2]: 0.095 nM
- IC50 [3]: 0.282 nM

Compound: CC[C@H](C)[C@@H]1NC(=O)[C@@H](NC(=O)[C@H](CO)NC(=O)[C@@H](N)CCCNC(=N)N)CSSC[C@@H](C(=O)O)NC(=O)[C@H]([C@@H](C)O)NC(=O)CNC(=O)[C@@H]2CSSC[C@@H]3NC(=O)[C@H](CCC(N)=O)NC(=O)[C@H](Cc4ccccc4)NC(=O)[C@H](C)NC(=O)[C@H]([C@@H](C)O)NC(=O)[C@H](CSSC[C@H](NC(=O)[C@H](CCCCN)NC(=O)[C@H](CO)NC(=O)[C@H](CC(C)C)NC(=O)[C@H](CCCNC(=N)N)NC(=O)[C@H](Cc4ccc(O)cc4)NC(=O)[C@H](CCCCN)NC(=O)[C@H](CCSC)NC(=O)[C@H](CO)NC(=O)[C@H](Cc4cnc[nH]4)NC(=O)[C@H](CCCCN)NC3=O)C(=O)N[C@@H](CCCNC(=N)N)C(=O)N[C@@H](CCCCN)C(=O)N[C@@H]([C@@H](C)O)C(=O)N2)NC(=O)[C@H](CCCNC(=N)N)NC(=O)[C@H](CO)NC(=O)[C@H](CCCCN)NC(=O)[C@@H]2CCCN2C(=O)[C@H]([C@@H](C)CC)NC(=O)[C@H]([C@@H](C)O)NC(=O)[C@H](CC(=O)O)NC1=O
- IC50 [1]: 3.49 nM
- IC50 [2]: 0.985 nM
- IC50 [3]: 11.8 nM
